Assays:
Experiment in all cases: relative viability (nuclei count vs DMSO), 5 days (fraction); higher = more cells survive
HCC-366 = tested on: HCC-366
Summary of the method: (§1)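 After 5 days of treatment, lung cancer cells in 1536-well plates were fixed and stained in a single step (final 0.05% Triton X-100, 1% formaldehyde, 1 ug/ml Hoechst) and their nuclei counted on 4× images. Treatment had been applied by pin tool the day after seeding as one drug alone or as a fixed anchor-drug dose with five library-drug doses (not always all listed) in √10 steps. Relative viability is the nuclei count of treated wells divided by that of vehicle wells, and values are medians of duplicate plates.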

NCI-H647 = tested on: NCI-H647
Summary of the method: as §1

SK-LU-1 = tested on: SK-LU-1
Summary of the method: as §1

NCI-H2170 = tested on: NCI-H2170
Summary of the method: as §1

HCC-827 = tested on: HCC-827
Summary of the method: as §1

NCI-H1734 = tested on: NCI-H1734
Summary of the method: as §1

NCI-H1355 = tested on: NCI-H1355
Summary of the method: as §1

EKVX = tested on: EKVX
Summary of the method: as §1

NCI-H1437 = tested on: NCI-H1437
Summary of the method: as §1

NCI-H661 = tested on: NCI-H661
Summary of the method: as §1

NCI-H1993 = tested on: NCI-H1993
Summary of the method: as §1

SK-MES-1 = tested on: SK-MES-1
Summary of the method: as §1

NCI-H1395 = tested on: NCI-H1395
Summary of the method: as §1

NCI-H2342 = tested on: NCI-H2342
Summary of the method: as §1

HARA = tested on: HARA
Summary of the method: as §1

NCI-H522 = tested on: NCI-H522
Summary of the method: as §1

LOU-NH91 = tested on: LOU-NH91
Summary of the method: as §1

NCI-H2087 = tested on: NCI-H2087
Summary of the method: as §1

NCI-H2405 = tested on: NCI-H2405
Summary of the method: as §1

BEN = tested on: BEN
Summary of the method: as §1

NCI-H2009 = tested on: NCI-H2009
Summary of the method: as §1

COc1nc(C)cnc1NS(=O)(=O)c1cccnc1-c1ccc(-c2nnco2)cc1 [Zibotentan] + Cc1cc(Nc2cc(N3CCN(C)CC3)nc(Sc3ccc(NC(=O)C4CC4)cc3)n2)n[nH]1 [Tozasertib] (partner 0.1 µM) gave a relative viability (HCC-366; first compound 0.08 µM) of 0.132, a relative viability (HCC-366; first compound 0.253 µM) of 0.0914 and a relative viability (HCC-366; first compound 0.8 µM) of 0.0627. The relative viability (HCC-366; first compound 2.53 µM) was 0.156, the relative viability (NCI-H647; first compound 0.08 µM) was 0.307 and the relative viability (NCI-H647; first compound 0.253 µM) was 0.183. The relative viability (NCI-H647; first compound 0.8 µM) was 0.298, the relative viability (NCI-H647; first compound 2.53 µM) was 0.262 and the relative viability (SK-LU-1; first compound 0.08 µM) was 0.327. It also gave a relative viability (SK-LU-1; first compound 0.253 µM) of 0.283, a relative viability (SK-LU-1; first compound 0.8 µM) of 0.336 and a relative viability (SK-LU-1; first compound 2.53 µM) of 0.424. For the same compound, the relative viability (NCI-H2170; first compound 0.08 µM) was 0.789, the relative viability (NCI-H2170; first compound 0.253 µM) was 0.693 and the relative viability (NCI-H2170; first compound 0.8 µM) was 0.809. It also gave a relative viability (NCI-H2170; first compound 2.53 µM) of 0.741, a relative viability (HCC-827; first compound 0.08 µM) of 0.438 and a relative viability (HCC-827; first compound 0.253 µM) of 0.411. The relative viability (HCC-827; first compound 0.8 µM) was 0.409, the relative viability (HCC-827; first compound 2.53 µM) was 0.371 and the relative viability (NCI-H1734; first compound 0.08 µM) was 0.283. The relative viability (NCI-H1734; first compound 0.253 µM) was 0.253, the relative viability (NCI-H1734; first compound 0.8 µM) was 0.247 and the relative viability (NCI-H1734; first compound 2.53 µM) was 0.326. It also gave a relative viability (NCI-H1355; first compound 0.08 µM) of 0.626, a relative viability (NCI-H1355; first compound 0.253 µM) of 0.537 and a relative viability (NCI-H1355; first compound 0.8 µM) of 0.55. The relative viability (NCI-H1355; first compound 2.53 µM) was 0.565, the relative viability (EKVX; first compound 0.08 µM) was 0.414 and the relative viability (EKVX; first compound 0.253 µM) was 0.348. For the same compound, the relative viability (EKVX; first compound 0.8 µM) was 0.365, the relative viability (EKVX; first compound 2.53 µM) was 0.428 and the relative viability (NCI-H1437; first compound 0.08 µM) was 0.421. It also gave a relative viability (NCI-H1437; first compound 0.253 µM) of 0.378, a relative viability (NCI-H1437; first compound 0.8 µM) of 0.38 and a relative viability (NCI-H1437; first compound 2.53 µM) of 0.448. It also gave a relative viability (NCI-H661; first compound 0.08 µM) of 0.369, a relative viability (NCI-H661; first compound 0.253 µM) of 0.334 and a relative viability (NCI-H661; first compound 0.8 µM) of 0.347. It also gave a relative viability (NCI-H661; first compound 2.53 µM) of 0.364, a relative viability (NCI-H1993; first compound 0.08 µM) of 0.591 and a relative viability (NCI-H1993; first compound 0.253 µM) of 0.583. The relative viability (NCI-H1993; first compound 0.8 µM) was 0.592, the relative viability (NCI-H1993; first compound 2.53 µM) was 0.606 and the relative viability (SK-MES-1; first compound 0.08 µM) was 0.999. For the same compound, the relative viability (SK-MES-1; first compound 0.253 µM) was 0.809, the relative viability (SK-MES-1; first compound 0.8 µM) was 0.874 and the relative viability (SK-MES-1; first compound 2.53 µM) was 0.877. The relative viability (NCI-H1395; first compound 0.08 µM) was 0.74, the relative viability (NCI-H1395; first compound 0.253 µM) was 0.762 and the relative viability (NCI-H1395; first compound 0.8 µM) was 0.733. The relative viability (NCI-H1395; first compound 2.53 µM) was 0.794, the relative viability (NCI-H2342; first compound 0.08 µM) was 0.496 and the relative viability (NCI-H2342; first compound 0.253 µM) was 0.446. The relative viability (NCI-H2342; first compound 0.8 µM) was 0.493, the relative viability (NCI-H2342; first compound 2.53 µM) was 0.667 and the relative viability (HARA; first compound 0.08 µM) was 0.0875. For the same compound, the relative viability (HARA; first compound 0.253 µM) was 0.102, the relative viability (HARA; first compound 0.8 µM) was 0.13 and the relative viability (HARA; first compound 2.53 µM) was 0.28. The relative viability (NCI-H522; first compound 0.08 µM) was 0.573, the relative viability (NCI-H522; first compound 0.253 µM) was 0.606 and the relative viability (NCI-H522; first compound 0.8 µM) was 0.599. It also gave a relative viability (NCI-H522; first compound 2.53 µM) of 0.568, a relative viability (LOU-NH91; first compound 0.08 µM) of 0.729 and a relative viability (LOU-NH91; first compound 0.253 µM) of 0.586. The relative viability (LOU-NH91; first compound 0.8 µM) was 0.722, the relative viability (LOU-NH91; first compound 2.53 µM) was 0.669 and the relative viability (NCI-H2087; first compound 0.08 µM) was 0.249. It also gave a relative viability (NCI-H2087; first compound 0.253 µM) of 0.268, a relative viability (NCI-H2087; first compound 0.8 µM) of 0.249 and a relative viability (NCI-H2087; first compound 2.53 µM) of 0.238. It also gave a relative viability (NCI-H2405; first compound 0.08 µM) of 0.747, a relative viability (NCI-H2405; first compound 0.253 µM) of 0.716 and a relative viability (NCI-H2405; first compound 0.8 µM) of 0.798. For the same compound, the relative viability (NCI-H2405; first compound 2.53 µM) was 0.77, the relative viability (BEN; first compound 0.08 µM) was 0.542 and the relative viability (BEN; first compound 0.253 µM) was 0.426. For the same compound, the relative viability (BEN; first compound 0.8 µM) was 0.473, the relative viability (BEN; first compound 2.53 µM) was 0.642 and the relative viability (NCI-H2009; first compound 0.08 µM) was 0.769. The relative viability (NCI-H2009; first compound 0.253 µM) was 0.72, the relative viability (NCI-H2009; first compound 0.8 µM) was 0.778 and the relative viability (NCI-H2009; first compound 2.53 µM) was 0.756.
